Measurements reported in PMC12022909, “A Multicomponent Reaction-Based Platform Opens New Avenues in Aryl Hydrocarbon Receptor Modulation” (ACS Central Science, 2025).
“Also recorded” adds a separate entry of the source.

What was measured:
[1] = target: T1, aryl hydrocarbon receptor (AhR) (Homo sapiens, UniProt P35869); experiment: AhR/XRE-dependent luciferase reporter gene assay in XRE-HepG2 cells; type: cell-based; conditions: XRE-HepG2 cells, 8 h; unit as in the supplements; read-out: AhR/XRE-dependent luciferase activity EC50
T1 construct: AhR-dependent reporter gene activity was determined in human HepG2 cells stably transfected with an XRE; endogenous in cells; host or cells: XRE-HepG2 (human HepG2 hepatoma cells stably carrying an XRE-luciferase plasmid)
T1 sequence (P35869 11-848): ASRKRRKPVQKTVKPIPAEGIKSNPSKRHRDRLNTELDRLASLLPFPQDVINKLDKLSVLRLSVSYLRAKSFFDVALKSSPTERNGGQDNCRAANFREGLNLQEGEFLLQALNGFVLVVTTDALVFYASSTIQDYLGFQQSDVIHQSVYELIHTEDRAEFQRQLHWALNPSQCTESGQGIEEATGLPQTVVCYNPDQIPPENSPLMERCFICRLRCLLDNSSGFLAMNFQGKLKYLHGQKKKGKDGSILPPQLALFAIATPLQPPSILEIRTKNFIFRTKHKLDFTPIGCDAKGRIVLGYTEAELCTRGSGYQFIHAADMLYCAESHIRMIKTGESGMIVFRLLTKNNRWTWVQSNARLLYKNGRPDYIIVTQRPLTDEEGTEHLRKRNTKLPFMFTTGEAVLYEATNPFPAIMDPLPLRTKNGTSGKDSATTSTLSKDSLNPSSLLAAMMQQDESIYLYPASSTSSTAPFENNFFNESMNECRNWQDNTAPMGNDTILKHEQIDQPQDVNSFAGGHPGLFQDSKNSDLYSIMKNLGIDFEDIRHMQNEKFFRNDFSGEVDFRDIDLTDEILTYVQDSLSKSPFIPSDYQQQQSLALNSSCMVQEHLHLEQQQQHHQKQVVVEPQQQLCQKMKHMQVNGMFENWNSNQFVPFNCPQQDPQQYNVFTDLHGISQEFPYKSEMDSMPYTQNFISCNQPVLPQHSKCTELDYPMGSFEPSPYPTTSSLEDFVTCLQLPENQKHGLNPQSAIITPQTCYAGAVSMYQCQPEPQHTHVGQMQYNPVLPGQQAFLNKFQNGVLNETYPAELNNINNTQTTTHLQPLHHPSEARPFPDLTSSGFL
Experimental: (f) AhR/XRE-dependent reporter gene activity results (EC50/μM).
Data are shown as mean ± SEM.
The human XRE -HepG2 reporter cell -line was a kind gift of K. Gradin and L. Poellinger (Karolinska Institute, Stockholm,
antibiotic/antimycotic solution, and 0.8 mg/ml G418. All cells were cultivated at 37 °C in a humidified atmosphere containing 5% CO 2.
AhR-dependent reporter gene activity was determined in human HepG2 cells stably transfected with an XRE -harboring luciferase plasmid (XRE-HepG2 cells). […] Luciferase activity was normalized to protein content.

[2] = tested on: HEK293T cells; experiment: Cell viability (Annexin V-APC, flow cytometry) in HEK293T cells; type: cell-based; conditions: 24 h
Experimental: (§1) A phosphatidylserine exposure was used to determine cell viability. Cells were washed with PBS, pelleted, and then incubated with annexin binding buffer containing Annexin V-APC (Life Technologies) for 15 min in the dark. Then, samples were analyzed by flow cytometry using FACSCanto II and FACSDiva (BD Biosciences, Franklin Lakes, NJ, USA). Data represents the percentage of non - apoptotic cells (Ann -APC-).
(§2) The cytotoxicity of a selection of the synthesized compounds was assessed after 24 hours of treatment in two human cell lines, Jurkat and HEK293T, coming from either tumoral T-cell lymphocytes or non-tumoral embryonic kidney fibroblasts, respectively. […]
(§3) the pro-apoptotic activity was not significant below 10 µM for most compounds in both cell lines, except for 5i, 5k and 5l in both cell lines, as well as 9a in Jurkat and 5e HEK293T cells (Figure S35A-B).
(§4) Moreover, the cytotoxicity of compounds 4d, 5b, 5h, 8, 10, and 12d at a higher concentration (100 µM) was assessed in both cell lines, Jurkat and HEK293T. The cytotoxicity of compounds 5b, 5h, and 12d could not be properly tested as the compounds were not soluble […]
(§5) effects observed for compound 4d in Jurkat cells and compound 8 in HEK293T cells (Figure S35C).
(§6) Figure S35. A) Jurkat and B) HEK293T cells were treated with 1 and 10 µM doses of the corresponding compound for 24 hours. Indicated doses of fluorizoline were used as a positive control of cell death. C) Jurkat and HEK293T cells were treated with 100 µM of the corresponding compound for 24 hours. Viability was measured by flow cytometry, and it is expressed as the mean ± SEM (n = 3) of the percentage of non -apoptotic cells (Ann-APC-). * p < 0.05, ** p < 0.01 *** p < […]
(§7) (1 picture or pasted object on this page, not shown here)

[3] = tested on: Jurkat cells; experiment: Cell viability (Annexin V-APC, flow cytometry) in Jurkat cells; type: cell-based; conditions: 24 h
Experimental: as §1, §2, §3, §4, §5, §6, §7

[4] = target: T2, AhR (Homo sapiens, UniProt P35869); experiment: Western blot of AhR in MCF7 cells; type: cell-based; conditions: 10 µM, 5 h
T2 construct: Degradation of endogenous AhR was further confirmed via Western blotting and global proteomics measurements in cells treated with 12b; host or cells: MCF7
T2 sequence (P35869 11-848): T1 sequence (P35869 11-848)
Experimental: Figure S30. Agonists induce degradation of AhR.
12b, 12c, and 12d at a concentration of 10 µM for 5h. The numbers on the Blot indicate the signal intensities of the bands relative to the Tubulin bands, normalized to DMSO treatment as quantified with Empiria Studio. […]
Cell culture and treatment […]
MCF7 cells were purchased from ATCC and grown in DMEM with 10% FCS and 1% penicillin/ streptomycin. […]
All cells were cultivated at 37 °C in a humidified atmosphere containing 5% CO 2.
Tapinarof (MedChemExpress, Monmouth Junction, NJ), benzo[a]pyrene (Sigma-Aldrich, Taufkirchen, Germany), TCDD (Amchro, Hattersheim am Main, Germany) and all compounds synthesized in this study were dissolved in dimethyl sulfoxide (DMSO; Roth). […]
Quantitative real-time PCR […]
• CYP1A1: […] (forward (5'>3')); […] (reverse (5'>3')).
• CYP1B1: […] (forward (5'>3')); […] (reverse (5'>3')).
• CCL26: […] (forward (5'>3')); […] (reverse (5'>3')).
• IL-19: […] (forward (5'>3')); […] (reverse (5'>3')).
• CXCL1: […] (forward (5'>3')); […] (reverse (5'>3')).
• β-actin: […] (forward (5'>3')); […] (reverse (5'>3')). […]
The assay was carried out as described earlier. Luciferase activity was normalized to protein content.
SDS-PAGE/Western blot analysis
Cells were lysed in RIPA buffer on ice and subsequently centrifuged for 15 min at 4 °C at maximum speed. Protein samples were separated by 10% and 12% SDS -polyacrylamide gel electrophoresis and blotted onto PVDF (GE Healthcare, Freiburg, Germany) or Nitrocellulose (BioRad #17 04158) membranes. Blots were blocked with 5% skim milk or bovine serum albumin in TBS -Tween-20 (0.1%) for or Intercept® (TBS) Blocking Buffer (LI -COR Biosciences) 1 h at room temperature and subsequently incubated overnight at 4 °C with primary antibodies. Blots were washed and then incubated for 1 h with a 1:5000 dilution of HRP -conjugated secondary antibodies in 5% bovine serum albumin in TBS -Tween-20 (0.1%) or anti-Mouse (Licor, IRDye® 680RD Goat anti -Mouse IgG, 1:10k dilution) or anti-Rabbit secondary antibody (Licor, IRDye® Goat anti -Rabbit IgG, 1:10k dilution) at room temperature. Bands were visualized using WesternBright ECL HRP substrate (Advansta, San Jose, CA) and a C -DiGit Western Blot Scanner (LI -COR Biotechnology, Lincoln, NE) or a Licor Odyssey CLx imager. Primary antibodies used in this study are as follows. AhR (Cat.No. 83200; Cell Signaling Technology, Leiden, The Netherlands). AIP (Cat.No. sc-59730; Santa Cruz Biotechnology, Dallas, TX). Cul4B (Cat.No. abx004735; Abbexa, Houston, TX). GAPDH (Cat.No. 2118; Cell Signaling Technology). Vinculin (Cat.No. 13901, Cell Signaling Technology). α - Tubulin (Abcam, ab7291, 1:10k dilution).
HaCaT-EV and HaCaT-shAhR cells were treated with either vehicle (DMSO) or 10 µM 12d for 0.5 h and 1 h. […]

[5] = tested on: HaCaT cells; experiment: UVA phototoxicity, caspase 3 activity in HaCaT cells; type: cell-based, human; conditions: for UVA radiation-induced caspase activity (phototoxicity): HaCaT, 1 h, UVA 5 J/cm2
Experimental: Irradiation with UVA and caspase 3 activity measurement […]
culture media was exchanged with PBS and the cells were sham or UVA (5 J/cm2) irradiated using the BS-02 irradiation chamber (Opsytec Dr. Gröbel, Ettlingen Germany). Media was added to the cells and after 4 h incubation, caspase 3 activity was measured as described previously.[33] Protein quantification was done with the Bio-Rad DC protein assay kit (Bio-Rad Laboratories, Hercules, CA) according to the manufacturer protocol.
We compared the phototoxic potential of five of our test compounds (8, 10, 5b, 5h, 4b) as well as the FDA-approved AhR activator […]
induced caspase activity at a concentration of 100 nM (Figure S36A). At a 10-fold higher concentration (1 µM) two of the test compounds […]
Figure S36. […] For statistical analysis a two-way ANOVA (Tukey post-hoc) was performed and data are shown as mean ± SEM. (*, p ≤ 0.05). […]

[6] = Solubility in the growing media during cytotoxicity testing; type: physicochemical; conditions: concentration of 100 µM
Experimental: as §1, §2, §3, §4, §5, §6, §7

SMILES	EC50 [1] [nM]	AhR receptor proteolysis [4]	cytotoxicity / pro-apoptotic activity at 100 µM [2]	cytotoxicity / pro-apoptotic activity at 100 µM [3]	overlap between effective and toxic concentrations [5]	UVA radiation-induced caspase activity (phototoxicity) ([5]; 100 nM)	UVA radiation-induced caspase activity (phototoxicity) ([5]; 1 µM)	solubility in the growing media [6]
Cn1c2ccccc2c2c(C3=C(O)CC(C)(C)CC3=O)c3c(cc21)c1ccccc1n3C [4d]	1310	–	minimal pro-apoptotic activity	slight cytotoxic effects	–	–	–	–
COc1ccc2[nH]cc(-c3c4[nH]c5ccccc5c4cc4[nH]c5ccccc5c34)c2c1 [5a]	600	induced receptor proteolysis	–	–	–	–	–	–
Cn1cc(-c2c3[nH]c4ccccc4c3cc3[nH]c4ccccc4c23)c2ccccc21 [5d]	380	induced receptor proteolysis	–	–	–	–	–	–

Continued, in another order:

EC50 [1] [nM]	AhR receptor proteolysis [4]	SMILES	cytotoxicity / pro-apoptotic activity at 100 µM [2]	cytotoxicity / pro-apoptotic activity at 100 µM [3]	overlap between effective and toxic concentrations [5]	UVA radiation-induced caspase activity (phototoxicity) ([5]; 100 nM)	UVA radiation-induced caspase activity (phototoxicity) ([5]; 1 µM)	solubility in the growing media [6]
2740	induced receptor proteolysis	Cc1[nH]c2ccccc2c1-c1c2[nH]c3ccc(F)cc3c2cc2[nH]c3ccc(F)cc3c12 [5k]	–	–	–	–	–	–
260	–	CC(=O)Nc1ccccc1C(=O)c1c2[nH]c3ccccc3c2cc2[nH]c3ccccc3c12 [compound 10]	minimal pro-apoptotic activity	minimal pro-apoptotic activity	minimal overlap	neither tapinarof nor our 6-ICZ compounds enhanced	did not show any signs of phototoxicity; also recorded: no phototoxicity	slight turbidity
